Assay results taken from patent publication US12036289B2, “Gadolinium bearing PCTA-based contrast agents” (BRACCO IMAGING S.P.A., priority 2018, dated 2024).
Where two headings read alike, the source gives them in different places. Marks after values point to notes of the source that are not given here. Each block holds one compound with its values, some of them ahead of it.

What was measured:
[1] = Acid catalyzed dissociation kinetics of Gadopiclenol (isomeric mixture) and of enantiomers pair C coupled with isoserinol in 1.0 M HCl, followed by HPLC; type: physicochemical; conditions: 1.0M HCl, 25° C.; fitting of area-time data
Procedure: The average half-life of the obtained conjugated compounds and of Gadopiclenol (isomeric mixture) were calculated considering the decrease of the HPLC total area over time as described in detail in Example 8. For amide derivatives obtained by reaction of RRR/SSS Gd(PCTA-tris-glutaric acid) with i) R-isoserinol; ii)S-isoserinol; and iii) racemic isoserinol the kX pseudo-first-order rate constants and half-lives (t1/2=ln 2/kX) were also calculated by fitting the area—time data pairs as carried out for RRR/SSS Gd(PCTA-tris-glutaric acid) in Example 7.
The HPLC measurements were performed with Thermo Finnigan LCQ DECA XPPlus system according to the analytical Procedure 2.
HPLC chromatogram of Gadopiclenol collected as isomeric mixture from Example 2 is characterized by the presence of 4 major peaks (identified for convenience as A′, B′, C′ and D′) having the same MS and UV-Vis spectra. However, there is only one signal in the HPLC chromatogram of the complex compounds obtained by coupling the enantiomers pair C with isoserinol, whether it is R, S isoserinol or racemic-isoserinol (FIG. 6). Since, as observed, the chirality of the isoserinol pendant has no influence on the retention time of coupled diastereoisomers, the presence of 4 signals in the HPLC chromatograms of Gadopiclenol (isomeric mixture) could be interpreted by the presence of 4 enantiomer pairs formed with the stereocenters of the of the glutaric acid residue: 1) RRR-SSS (Signal D′), 2) RSR-SRS, 3) RRS-SSR and 4) RSS-SRR.
The progress of the reactions was checked by HPLC over time, plotting the area values of the peaks of the complex as a function of time, as above discussed in Example 7 for Gd(PCTA-tris-glutaric acid) isomers.
As expected, the integral values of A′, B′, C′, and D′ decrease over time, whereas the peak of the free ligand increases. […] The half-life of complexes obtained by coupling the enantiomers pair C with R, S and racemic-isoserinol was also calculated from the half of the area values in the HPLC chromatograms.

[2] = Relaxometric properties: longitudinal relaxivity r1; type: physicochemical
Procedure: The relaxometric properties of the PCTA-based complex compounds according to the invention have been measured at different magnetic field strengths, i.e. 0.47 and 1.41 T, at 37° C. and in different media (water and human plasma) and compared with relaxivity values measured, at the same conditions, for Gd-Complex having an analogous coordination cage.
The longitudinal water proton relaxation rate (R1=1/T1) was measured at 0.47 T with a Minispec MQ-20 spectrometer (Bruker Biospin, Germany) operating at a proton Larmor frequency of 20 MHz; MR experiments at 1.41 T were performed using a Minispec MQ-60 spectrometer (Bruker Biospin, Germany) operating at a proton Larmor frequency of 60 MHz.
All test articles were used as supplied and diluted in the selected medium (water or human plasma) by weighting the required amount of paramagnetic chelated complex to get a 5 or 10 mM starting solution.
Five different concentration samples (0.1, 0.25, 0.5, 0.75 and 1 mM) for each medium have been prepared by further dilution of the starting 5 or 10 mM solution.
Relaxivity measurements were performed at 0.47 T and 1.41 T at a preset temperature sample of 37° C., kept constant by means of a thermostatic bath connected to the sample holder of the spectrometer. The five sample solutions have been preliminary pre-heated at 37° C. in an external thermostatic bath and then left 10 minutes inside the internal bath to assure the stabilization of the temperature. Longitudinal relaxation time T1 was measured by means of a standard inversion recovery sequence, where the inversion time (TI) was varied from 10 ms to at least 5 times T1 in 15 steps. Statistical analysis (mono-exponential fitting for T1 measurement, linear fitting for the evaluation of longitudinal relaxivity) was performed by Mathematica® (Wolfram, USA). Errors on the estimated parameters were evaluated by the fitting procedure.

[3] = cited from earlier work
[4] = cited from earlier work; remark: listed apart in the source
[5] = 1.0M HCl (pH 0), 25° C.; literature value; cited from earlier work
[6] = 1.0M HCl, 25° C.; literature value; cited from earlier work
[7] = pH 0
Procedure: In order to investigate the kinetic inertness of the racemic mixture of the Gd(PCTA-tris-glutaric acid) and, particularly, of the four enantiomer pairs thereof separated by HPLC, we investigated their dissociation reactions taking place under acidic conditions. A large excess of H^+ ([HCl]=1.0 M) was in particular exploited in order to guarantee the pseudo-first order kinetic conditions.
A solution of Gd(PCTA-tris-glutaric acid) (isomeric mixture) in 1 M HCl was prepared and was analysed over the time as explained in Example 7.
In particular, the area value for each of the A, B, C, and D peaks was assessed over the time by HPLC.
The decrease of the integral area values of signals of A, B, C, and D was thus assessed and plotted as a function of the time.
kX pseudo-first-order rate constants (where kX is =kA, kB, kC and kD respectively), characterizing the dissociation rate of the different enantiomer pairs of the Gd(PCTA-tris-glutaric acid) complex and half-lives (t1/2=ln2/kX) were then calculated by fitting the area —time data pairs, as explained in details in Example 7. The average half-life value for the isomeric mixture of Gd(PCTA-tris-glutaric acid) was also obtained, by considering the percentage composition of the mixture. […]

r1 (mM^−1s^−1) H2O, 0.5T, 37° C. [2]: 12.9 ± 0.1 mM⁻¹ s⁻¹ | r1 (mM^−1s^−1) HSA, 1.5T, 37° C. [2]: 14.0 ± 0.3 mM⁻¹ s⁻¹
Compound: O=C(CCC(C(=O)[O-])N1CCN(C(CCC(=O)NCC(O)CO)C(=O)[O-])Cc2cccc(n2)CN(C(CCC(=O)NCC(O)CO)C(=O)[O-])CC1)NCC(O)CO.[Gd+3] (single isomer, unassigned) [Enantiomers pair C + R-isoserinol]
kx (s^−1) pseudo-first-order rate constant of acid catalyzed dissociation [1]: (4.9 ± 0.4) × 10^−6 s^−1

Compound: gadolinium chelate of 2,2′,2″-(3,6,9-triaza-1(2,6)-pyridinacyclodecaphane-3,6,9-triyl)tris(5-((2,3-dihydroxypropyl)amino)-5-oxopentanoic acid) [Gadopiclenol (isomeric mixture)]
stability (log K^term) ([3]; Investigative Radiology 2019, Vol 54, (8), 475-484): 18.7 | thermodynamic equilibrium constant (log K^term) ([3]; reported in EP 2988756): 14.9 | r1 (mM^−1s^−1) H2O, 0.5T, 37° C. ([4]; H2O, 0.5T, 37° C., value reported in EP 1931673): 11* mM^−1s^−1 | r1 (mM^−1s^−1) HSA, 1.5T, 37° C. ([4]; HSA, 1.5T, 37° C., value reported in Invest. Radiol. 2015, 50, 835-842): 12.8 ± 1.3** mM^−1s^−1 | relaxivity ([4]; in human serum (37° C., 1.41 T), Investigative Radiology 2019, Vol 54, (8), 475-484): 12.8 mM⁻¹ s⁻¹ | relaxivity ([4]; in water, at 0.5 T, 37° C., reported in EP1931673): 11 mM^−1s^−1Gd^−1

Compound: O=C([O-])CN1CCN(CC(=O)[O-])CCN(CC(=O)O)CCN(CC(=O)[O-])CC1.[Gd+3] [Dotarem, Gd-DOTA]
k1 (s^−1) rate constant of acid catalyzed dissociation [5]: 8e-06 s⁻¹ | kx (s^−1) rate constant of acid catalyzed dissociation [6]: 8e-06 s⁻¹

Compound: O=C([O-])CN1CCN(CC(=O)[O-])Cc2cccc(n2)CN(CC(=O)[O-])CC1.[Eu+3] [Eu(PCTA), europium complex of the 3,6,9,15-tetraazabicyclo[9.3.1]pentadeca-1(15),11,13-triene-3,6,9,-triacetic acid]
k1 (s^−1) rate constant of acid catalyzed dissociation [5]: 0.000508 s⁻¹ | kx (s^−1) rate constant of acid catalyzed dissociation [6]: 0.000508 s⁻¹

r1 (mM^−1s^−1) H2O, 0.5T, 37° C. [2]: 12.9 ± 0.2 mM⁻¹ s⁻¹ | r1 (mM^−1s^−1) HSA, 1.5T, 37° C. [2]: 13.9 ± 0.2 mM⁻¹ s⁻¹
Compound: O=C(CCC(C(=O)[O-])N1CCN(C(CCC(=O)NCC(O)CO)C(=O)[O-])Cc2cccc(n2)CN(C(CCC(=O)NCC(O)CO)C(=O)[O-])CC1)NCC(O)CO.[Gd+3] (single isomer, unassigned) [Enantiomers pair C + S-isoserinol]
kx (s^−1) pseudo-first-order rate constant of acid catalyzed dissociation [1]: (4.6 ± 0.3) × 10^−6 s^−1

r1 (mM^−1s^−1) H2O, 0.5T, 37° C. [2]: 9.3 ± 0.1 mM⁻¹ s⁻¹ | r1 (mM^−1s^−1) H2O, 0.5T, 37° C. ([2]; listed as enantiomers pair C): 9.3 ± 0.1 mM⁻¹ s⁻¹ | t1/2 (hour) dissociation half-life (t1/2 = ln2/kx) [7]: 120 ± 3 h
Compound: RRR/SSS Gd(PCTA-tris-glutaric acid)

r1 (mM^−1s^−1) H2O, 0.5T, 37° C. [2]: 13.0 ± 0.1 mM⁻¹ s⁻¹ | r1 (mM^−1s^−1) HSA, 1.5T, 37° C. [2]: 14.0 ± 0.2 mM⁻¹ s⁻¹
Compound: O=C(CCC(C(=O)[O-])N1CCN(C(CCC(=O)NCC(O)CO)C(=O)[O-])Cc2cccc(n2)CN(C(CCC(=O)NCC(O)CO)C(=O)[O-])CC1)NCC(O)CO.[Gd+3] (single isomer, unassigned) [Enantiomers pair C + racemic-isoserinol]
kx (s^−1) pseudo-first-order rate constant of acid catalyzed dissociation [1]: (4.5 ± 0.4) × 10^−6 s^−1
